Measurements as given in US9433687B2, “Anti-Notch3 antibodies and antibody-drug conjugates” (Pfizer Inc., priority 2012, dated 2016).

Experiments:
[1] = test system: OVCAR3 ovarian xenografts; test: OVCAR3 ovarian xenograft model; details: dose 20 mg/kg intraperitoneally Q7d×8
[2] = test system: MDA-MB-468 (breast cancer); test: In vitro cytotoxicity (MTS), MDA-MB-468; type: cell-based, human; details: Table 13; four days; LP = lacked potency
Protocol: (§1) The effects of anti-Notch3 ADCs were assessed on 1) cell lines endogenously expressing Notch3 protein: HCC2429 (lung cancer), OVCAR3 (ovarian cancer) and MDA-MB-468 (breast cancer), 2) cell lines engineered to over-express full length human Notch3 protein: MDA-MB-468/hNotch3 and U2OS/hNotch3, and 3) a negative control cell line (SW900) using an MTS cellular viability indicator (Promega, Madison, Wis.). These cell lines were cultured with increasing concentrations of anti-Notch3 ADCs comprising rat-human chimeric anti-Notch3 antibodies, ch28 and ch75, and humanized anti-Notch3 antibodies, hu28 and hu75, conjugated to various linker-payload combinations of the present invention. As a specificity control for the anti-Notch3-ADCs, non-targeted control-ADCs (huNeg8.8-ADCs or ch2H6-ADCs) were also tested on the same cell lines. After four days, viability of each culture was assessed. IC50 values were calculated by logistic non-linear regression, model #203 with XL fit v4.2 (IDBS, Guildford, Surry, UK) and presented as ng Ab/mL. The drug antibody ratio (DAR) is also provided.

[3] = test system: HCC2429 (lung cancer); test: In vitro cytotoxicity (MTS), HCC2429; type: cell-based, human; details: Table 13; four days; LP = lacked potency
Protocol: as §1
(§2) This process generated the anti-Notch3 cysteine mutant ADCs: hu28-(L443C)-vc0101 and hu28-(L443C/κK183C)-vc0101. The activity of the anti-Notch3 cysteine mutant ADCs were assessed on cell lines endogenously expressing Notch3 protein: HCC2429 (lung cancer) and OVCAR3 (ovarian cancer) using an MTS cellular viability indicator as described in previous Examples.

[4] = test system: OVCAR3 (ovarian cancer); test: In vitro cytotoxicity (MTS), OVCAR3; type: cell-based, human; details: Table 13; four days; LP = lacked potency
Protocol: as §1, §2

N.N.O=C([O-])C1(C(=O)[O-])CCC1.[Pt+2] [carboplatin, reference compound]
tumor volume ([1]; DAY 0): 167 mm3
tumor volume ([1]; DAY 3): 242 mm3
tumor volume ([1]; DAY 6): 246 mm3
tumor volume ([1]; DAY 11): 311 mm3
tumor volume ([1]; DAY 14): 426 mm3
tumor volume ([1]; DAY 18): 473 mm3
tumor volume ([1]; DAY 21): 475 mm3
tumor volume ([1]; DAY 25): 552 mm3
tumor volume ([1]; DAY 28): 640 mm3
tumor volume ([1]; DAY 31): 692 mm3
tumor volume ([1]; DAY 34): 811 mm3
tumor volume ([1]; DAY 38): 869 mm3
tumor volume ([1]; DAY 41): 906 mm3
tumor volume ([1]; DAY 45): 1009 mm3
tumor volume ([1]; DAY 49): 1149 mm3
tumor volume ([1]; DAY 53): 1290 mm3
tumor volume ([1]; DAY 56): 1370 mm3
tumor volume ([1]; DAY 59): 1514 mm3
tumor volume ([1]; DAY 63): 1783 mm3
tumor volume ([1]; DAY 67): 1844 mm3

B1: ch75-MalPeg6C2-8261 (conjugate)
VH: QVKLLQSGAALVKPGASVKMSCKASGYAFTDYWVTWVKQSHGKSLEWIGEISPNSGGTNFNEKFKGKATLTVDKSTSTAYMELSRLTSEDSAIYYCTRGEIRYNWFAYWGQGTLVTVSS
VL: DIQMTQSPSSLSASVGDRVTITCKASQNVGNNIAWYQQKPGKAPKLLIYYASNRYTGVPSRFSGSGYGTDFTLTISSLQPEDFATYYCQRLYNSPFTFGGGTKVEIK
IC50 (ng Ab/mL) ± S.E.M., MDA-MB-468 [2]: 4255 ± 2375^ ng Ab/mL

B2: ch75-mc3377 (conjugate)
VH: QVKLLQSGAALVKPGASVKMSCKASGYAFTDYWVTWVKQSHGKSLEWIGEISPNSGGTNFNEKFKGKATLTVDKSTSTAYMELSRLTSEDSAIYYCTRGEIRYNWFAYWGQGTLVTVSS
VL: DIQMTQSPSSLSASVGDRVTITCKASQNVGNNIAWYQQKPGKAPKLLIYYASNRYTGVPSRFSGSGYGTDFTLTISSLQPEDFATYYCQRLYNSPFTFGGGTKVEIK
IC50 (ng Ab/mL) ± S.E.M., MDA-MB-468 [2]: 560 ng Ab/mL

B3: ch75-me0131 (conjugate)
VH: QVKLLQSGAALVKPGASVKMSCKASGYAFTDYWVTWVKQSHGKSLEWIGEISPNSGGTNFNEKFKGKATLTVDKSTSTAYMELSRLTSEDSAIYYCTRGEIRYNWFAYWGQGTLVTVSS
VL: DIQMTQSPSSLSASVGDRVTITCKASQNVGNNIAWYQQKPGKAPKLLIYYASNRYTGVPSRFSGSGYGTDFTLTISSLQPEDFATYYCQRLYNSPFTFGGGTKVEIK
IC50 (ng Ab/mL) ± S.E.M., MDA-MB-468 [2]: 259 ng Ab/mL

B4: ch28-me0131 (conjugate)
VH: EVQLVESGGGLVQPGRSLTLSCVASGFTFRDYGMTWIRQAPGKGLTWVAYISSGSNYIYYAEAVKGRFTISRDNAKNTLYLQMTSLRSEDTALYFCTRRGPFVLDAWGQGASVTVSS
VL: DIQMTQSPSFLSASVGDRVTINCKASQSINRYLHWFQQKLGEAPKLLIYNANGLQTGIPSRFSGSGSGTDFTLTISSLQSEDVATYFCLQHNTWPDTFGAGTKLELK
IC50 (ng Ab/mL) ± S.E.M., MDA-MB-468 [2]: 24 ± 14.0 ng Ab/mL
IC50 (ng Ab/mL) ± S.E.M., HCC2429 [3]: 30 ng Ab/mL
IC50 (ng Ab/mL) ± S.E.M., OVCAR3 [4]: 8 ± 2.0 ng Ab/mL

B5: ch28-vc6780 (conjugate)
VH: EVQLVESGGGLVQPGRSLTLSCVASGFTFRDYGMTWIRQAPGKGLTWVAYISSGSNYIYYAEAVKGRFTISRDNAKNTLYLQMTSLRSEDTALYFCTRRGPFVLDAWGQGASVTVSS
VL: DIQMTQSPSFLSASVGDRVTINCKASQSINRYLHWFQQKLGEAPKLLIYNANGLQTGIPSRFSGSGSGTDFTLTISSLQSEDVATYFCLQHNTWPDTFGAGTKLELK
IC50 (ng Ab/mL) ± S.E.M., MDA-MB-468 [2]: 4407 ± 2128.2 ng Ab/mL
IC50 (ng Ab/mL) ± S.E.M., HCC2429 [3]: 324 ± 78.9 ng Ab/mL
IC50 (ng Ab/mL) ± S.E.M., OVCAR3 [4]: 90 ± 48.5 ng Ab/mL

B6: ch28-MalPeg6C2-8261 (conjugate)
VH: EVQLVESGGGLVQPGRSLTLSCVASGFTFRDYGMTWIRQAPGKGLTWVAYISSGSNYIYYAEAVKGRFTISRDNAKNTLYLQMTSLRSEDTALYFCTRRGPFVLDAWGQGASVTVSS
VL: DIQMTQSPSFLSASVGDRVTINCKASQSINRYLHWFQQKLGEAPKLLIYNANGLQTGIPSRFSGSGSGTDFTLTISSLQSEDVATYFCLQHNTWPDTFGAGTKLELK
IC50 (ng Ab/mL) ± S.E.M., MDA-MB-468 [2]: 83 ± 35.5 ng Ab/mL

B7: ch28-MalPeg6C2-0131 (conjugate)
VH: EVQLVESGGGLVQPGRSLTLSCVASGFTFRDYGMTWIRQAPGKGLTWVAYISSGSNYIYYAEAVKGRFTISRDNAKNTLYLQMTSLRSEDTALYFCTRRGPFVLDAWGQGASVTVSS
VL: DIQMTQSPSFLSASVGDRVTINCKASQSINRYLHWFQQKLGEAPKLLIYNANGLQTGIPSRFSGSGSGTDFTLTISSLQSEDVATYFCLQHNTWPDTFGAGTKLELK
IC50 (ng Ab/mL) ± S.E.M., MDA-MB-468 [2]: 10 ± 1.0 ng Ab/mL
IC50 (ng Ab/mL) ± S.E.M., OVCAR3 [4]: 10 ± 2.0 ng Ab/mL

B8: ch28-mc8261 (conjugate)
VH: EVQLVESGGGLVQPGRSLTLSCVASGFTFRDYGMTWIRQAPGKGLTWVAYISSGSNYIYYAEAVKGRFTISRDNAKNTLYLQMTSLRSEDTALYFCTRRGPFVLDAWGQGASVTVSS
VL: DIQMTQSPSFLSASVGDRVTINCKASQSINRYLHWFQQKLGEAPKLLIYNANGLQTGIPSRFSGSGSGTDFTLTISSLQSEDVATYFCLQHNTWPDTFGAGTKLELK
IC50 (ng Ab/mL) ± S.E.M., MDA-MB-468 [2]: 12147 ± 4806.4 ng Ab/mL

B9: ch28-mc3377 (conjugate)
VH: EVQLVESGGGLVQPGRSLTLSCVASGFTFRDYGMTWIRQAPGKGLTWVAYISSGSNYIYYAEAVKGRFTISRDNAKNTLYLQMTSLRSEDTALYFCTRRGPFVLDAWGQGASVTVSS
VL: DIQMTQSPSFLSASVGDRVTINCKASQSINRYLHWFQQKLGEAPKLLIYNANGLQTGIPSRFSGSGSGTDFTLTISSLQSEDVATYFCLQHNTWPDTFGAGTKLELK
IC50 (ng Ab/mL) ± S.E.M., MDA-MB-468 [2]: 27 ± 11.3 ng Ab/mL
IC50 (ng Ab/mL) ± S.E.M., OVCAR3 [4]: 14 ± 5.5 ng Ab/mL
